For 4 compounds, remaining activity results are on record in PMC5564600 (Oncotarget, 2017).

Molecules are shown by their SMILES.

What all share (assay): biochemical
Holding throughout (type): binding

The target of experiment [1] is T1, panel of 442 kinases (Homo sapiens, UniProt O43283).
T1 construct: purchased Ambit Biosciences (scanMAXX KINOMEscan)
T1 sequence (O43283 1-966): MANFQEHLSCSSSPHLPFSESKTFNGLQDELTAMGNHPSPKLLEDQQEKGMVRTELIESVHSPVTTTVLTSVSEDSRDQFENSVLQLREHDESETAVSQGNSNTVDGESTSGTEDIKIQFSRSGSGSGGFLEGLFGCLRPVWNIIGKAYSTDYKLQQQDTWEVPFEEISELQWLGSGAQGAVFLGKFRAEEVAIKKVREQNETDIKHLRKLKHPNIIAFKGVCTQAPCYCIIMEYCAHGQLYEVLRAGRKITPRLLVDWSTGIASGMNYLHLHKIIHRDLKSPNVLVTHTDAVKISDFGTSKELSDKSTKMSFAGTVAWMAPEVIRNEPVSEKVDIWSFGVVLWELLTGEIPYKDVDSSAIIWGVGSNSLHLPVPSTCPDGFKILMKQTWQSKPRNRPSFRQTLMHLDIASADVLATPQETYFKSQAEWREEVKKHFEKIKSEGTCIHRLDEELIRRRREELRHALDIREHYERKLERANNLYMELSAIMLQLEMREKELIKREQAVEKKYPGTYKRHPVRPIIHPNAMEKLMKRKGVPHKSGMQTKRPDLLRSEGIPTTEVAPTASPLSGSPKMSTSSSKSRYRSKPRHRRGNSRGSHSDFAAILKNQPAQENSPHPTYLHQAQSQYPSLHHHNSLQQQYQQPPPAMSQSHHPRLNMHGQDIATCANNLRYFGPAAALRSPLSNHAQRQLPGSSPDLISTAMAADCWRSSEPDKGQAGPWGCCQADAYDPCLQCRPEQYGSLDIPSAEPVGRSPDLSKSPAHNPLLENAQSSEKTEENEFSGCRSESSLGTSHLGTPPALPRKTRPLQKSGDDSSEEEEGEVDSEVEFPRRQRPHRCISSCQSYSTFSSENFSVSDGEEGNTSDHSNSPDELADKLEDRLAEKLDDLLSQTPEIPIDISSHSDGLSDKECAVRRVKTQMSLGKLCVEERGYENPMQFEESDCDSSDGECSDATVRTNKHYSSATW
The settings on record: kinase LZK; for remaining activity at 1 µM: read-out: % of control at 1 µM.

The target in experiment [2] is T2, panel of 442 kinases (Homo sapiens, UniProt Q8WU08).
T2 construct: purchased Ambit Biosciences (scanMAXX KINOMEscan)
T2 sequence (Q8WU08 whole entry): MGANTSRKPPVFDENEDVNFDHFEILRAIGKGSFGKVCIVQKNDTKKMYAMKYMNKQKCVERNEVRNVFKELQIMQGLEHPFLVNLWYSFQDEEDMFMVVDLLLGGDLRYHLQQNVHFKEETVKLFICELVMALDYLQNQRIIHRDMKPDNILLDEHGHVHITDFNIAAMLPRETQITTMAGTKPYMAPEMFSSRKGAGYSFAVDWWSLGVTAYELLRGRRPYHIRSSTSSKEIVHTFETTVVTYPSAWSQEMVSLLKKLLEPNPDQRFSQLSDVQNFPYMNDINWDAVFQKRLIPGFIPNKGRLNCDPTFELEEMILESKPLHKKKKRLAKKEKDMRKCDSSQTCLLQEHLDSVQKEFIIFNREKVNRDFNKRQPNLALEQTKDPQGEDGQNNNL
The settings on record: kinase YANK1; for remaining activity at 1 µM: read-out: YANK1 (% of control at 1 µM).

In experiment [3] the target is T3, panel of 442 kinases (Homo sapiens, UniProt Q9UL54).
T3 construct: purchased Ambit Biosciences (scanMAXX KINOMEscan)
T3 sequence (Q9UL54 1-1235): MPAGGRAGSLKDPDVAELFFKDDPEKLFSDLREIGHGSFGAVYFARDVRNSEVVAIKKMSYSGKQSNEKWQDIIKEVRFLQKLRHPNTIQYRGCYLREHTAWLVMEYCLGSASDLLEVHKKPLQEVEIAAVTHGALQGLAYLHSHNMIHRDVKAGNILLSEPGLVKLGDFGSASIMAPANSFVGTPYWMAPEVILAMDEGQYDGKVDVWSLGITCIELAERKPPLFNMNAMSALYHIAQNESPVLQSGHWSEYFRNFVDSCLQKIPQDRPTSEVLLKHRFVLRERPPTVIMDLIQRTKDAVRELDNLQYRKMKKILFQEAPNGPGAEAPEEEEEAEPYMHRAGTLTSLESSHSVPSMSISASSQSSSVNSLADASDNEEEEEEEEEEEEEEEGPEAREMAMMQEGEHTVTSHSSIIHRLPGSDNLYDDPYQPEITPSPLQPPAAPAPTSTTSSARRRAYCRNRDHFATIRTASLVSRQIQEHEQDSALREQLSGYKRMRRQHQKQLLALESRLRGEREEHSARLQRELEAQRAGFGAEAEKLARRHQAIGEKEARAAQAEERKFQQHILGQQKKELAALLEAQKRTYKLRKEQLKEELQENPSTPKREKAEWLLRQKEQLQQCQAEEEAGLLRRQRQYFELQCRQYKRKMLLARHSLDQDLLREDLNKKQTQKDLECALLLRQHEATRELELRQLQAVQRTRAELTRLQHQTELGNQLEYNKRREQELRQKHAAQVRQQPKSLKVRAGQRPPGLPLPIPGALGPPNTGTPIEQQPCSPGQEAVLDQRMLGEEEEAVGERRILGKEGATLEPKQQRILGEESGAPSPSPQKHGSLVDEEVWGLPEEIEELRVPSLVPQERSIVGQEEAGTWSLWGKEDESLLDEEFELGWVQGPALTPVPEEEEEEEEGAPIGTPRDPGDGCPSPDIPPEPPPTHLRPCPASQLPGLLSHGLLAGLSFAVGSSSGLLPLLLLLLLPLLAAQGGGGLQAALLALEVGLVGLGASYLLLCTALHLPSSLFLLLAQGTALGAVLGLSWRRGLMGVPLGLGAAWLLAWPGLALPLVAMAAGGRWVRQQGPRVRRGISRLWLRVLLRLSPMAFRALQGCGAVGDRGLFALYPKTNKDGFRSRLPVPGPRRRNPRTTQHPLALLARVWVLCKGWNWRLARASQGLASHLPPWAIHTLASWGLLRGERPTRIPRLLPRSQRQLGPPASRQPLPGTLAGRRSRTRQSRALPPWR
The settings on record: kinase TAOK2; for remaining activity at 1 µM: read-out: TAOK2 (% of control at 1 µM).

Experiment [4] addresses T4, panel of 442 kinases (Homo sapiens, UniProt Q96D53).
T4 construct: purchased Ambit Biosciences (scanMAXX KINOMEscan)
T4 sequence (Q96D53 1-544): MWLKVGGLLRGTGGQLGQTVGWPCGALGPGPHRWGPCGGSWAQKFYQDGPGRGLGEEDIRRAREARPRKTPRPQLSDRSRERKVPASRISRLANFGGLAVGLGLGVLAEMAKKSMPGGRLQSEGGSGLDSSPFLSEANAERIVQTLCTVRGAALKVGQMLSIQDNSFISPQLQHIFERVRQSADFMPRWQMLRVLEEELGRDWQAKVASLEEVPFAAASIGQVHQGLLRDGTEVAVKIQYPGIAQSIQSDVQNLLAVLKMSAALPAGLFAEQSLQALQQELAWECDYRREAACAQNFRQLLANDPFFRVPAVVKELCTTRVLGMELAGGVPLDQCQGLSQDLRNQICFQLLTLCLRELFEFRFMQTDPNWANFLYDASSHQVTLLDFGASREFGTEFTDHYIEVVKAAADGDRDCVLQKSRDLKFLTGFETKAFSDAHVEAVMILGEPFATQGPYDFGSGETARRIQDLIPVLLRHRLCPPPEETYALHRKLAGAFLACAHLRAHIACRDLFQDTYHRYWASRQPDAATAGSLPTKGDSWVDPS
Particulars: ADCK4; for remaining activity at 1 µM: read-out: % of control at 1 µM.

[5] abbreviates: 10 µM, read-out: % of control at 10 µM.

For the compound `Nc1cc(C(F)(F)F)c(-c2cc(N3CCOCC3)nc(N3CCOCC3)n2)cn1` [Buparlisib], the remaining activity at 1 µM at panel of 442 kinases [1] stood at 81%; on panel of 442 kinases [2], 100%; at panel of 442 kinases [3], 87%; on panel of 442 kinases [4], 100%. In addition, the remaining activity at 10 µM on panel of 442 kinases [1] (setting [5]) was determined as 98%; at panel of 442 kinases [2] (10 µM, read-out: YANK1 (% of control at 10 µM)), 100%; on panel of 442 kinases [3] (10 µM, read-out: TAOK2 (% of control at 10 µM)), 84%; on panel of 442 kinases [4] (setting [5]), 100%.

Turning to `Cn1c(=O)n(-c2ccc(C(C)(C)C#N)cc2)c2c3cc(-c4cnc5ccccc5c4)ccc3ncc21` [Dactolisib, 2-methyl-2-[4-(3-methyl-2-oxo-8-quinolin-3-yl-2,3-dihydroimidazo[4,5-c]quinolin-1-yl)-phenyl] propionitrile], the remaining activity at 1 µM was 100% at panel of 442 kinases [1], 100% on panel of 442 kinases [2] and 98% at panel of 442 kinases [3].

For `COc1ncc(-c2ccc3nccc(-c4ccnnc4)c3c2)cc1NS(=O)(=O)c1ccc(F)cc1F` [Omipalisib], the remaining activity at 1 µM at panel of 442 kinases [1] is 100%; at panel of 442 kinases [2], 100%; at panel of 442 kinases [3], 100%; at panel of 442 kinases [4] it was 75%.

For `FC(F)c1nc2ccccc2n1-c1nc(N2CCOCC2)nc(N2CCOCC2)n1` [ZSTK474, 2-(difluoromethyl)-1-[4,6-di(4-morpholinyl)-1,3,5-triazin-2-yl]-1H-benzimidazole], the remaining activity at 1 µM turned out to be 100% on panel of 442 kinases [1], 100% at panel of 442 kinases [2], 81% at panel of 442 kinases [3] and 74% on panel of 442 kinases [4].
